According to ChEMBL document CHEMBL5625202, “Synthesis, characterization and anti-breast cancer activities of stachydrine derivatives” (Eur J Med Chem, 2023):
The source made the active and inactive calls. No cut-off for these calls is given here.

Key:
[1] = test system: 4T1; assay: Anticancer activity against mouse 4T1 cells assessed as inhibition of cell growth incubated for 72 hrs by CCK-8 assay; assay type: functional, cell-based; conditions: 4T1, 72 h
[2] = test system: 4T1; assay: Anticancer activity against mouse 4T1 cells assessed as inhibition of cell growth incubated for 24 hrs by CCK-8 assay; assay type: functional, cell-based; conditions: 4T1, 24 h
[3] = test system: 4T1; assay: Anticancer activity against mouse 4T1 cells assessed as inhibition of cell growth incubated for 48 hrs by CCK-8 assay; assay type: functional, cell-based; conditions: 4T1, 48 h
[4] = Toxicity in BALB/c mouse implanted with mouse 4T1 cells assessed as reduction in spleen index at 0.2 mmol/Kg, po administered once every day for 14 days relative to control; assay type: organism-based; conditions: in vivo, 336 h, time 14 day
[5] = Toxicity in BALB/c mouse implanted with mouse 4T1 cells assessed as change in kidney histopathology at 0.2 mmol/Kg, po administered once every day for 14 days; assay type: organism-based; conditions: in vivo, 336 h, time 14 day
[6] = Toxicity in BALB/c mouse implanted with mouse 4T1 cells assessed as blurred spleen morphology at 0.2 mmol/Kg, po administered once every day for 14 days; assay type: organism-based; conditions: in vivo, 336 h, time 14 day
[7] = Toxicity in BALB/c mouse implanted with mouse 4T1 cells assessed as body weight loss at 0.2 mmol/Kg, po administered once daily for 14 days; assay type: organism-based; conditions: in vivo, 336 h, time 14 day
[8] = test system: 4T1; assay: Antitumor activity against mouse 4T1 cells implanted in BALB/c mouse assessed as tumor growth inhibition at 0.2 mmol/Kg, po administered once every day for 14 days relative to control; assay type: functional; conditions: 4T1, 336 h, time 14 day, read-out: TGI
[9] = test system: 4T1; assay: Antitumor activity against mouse 4T1 cells implanted in BALB/c mouse assessed as change in tumor weight at 0.2 mmol/Kg, po administered once every day for 14 days; assay type: functional, organism-based; conditions: time 14.0 day
[10] = Prodrug conversion in serum (unknown origin) assessed as drug hydrolysis by measuring stachydrine release at 3 to 20 hrs; assay type: ADME, cell-free; conditions: time 3-20 hrs
[11] = test system: 4T1; assay: Induction of apoptosis in mouse 4T1 cells assessed as apoptotic rate at 4000 micromol/L incubated for 24 hrs by Annexin-V/PI staining based flow cytometry relative to control; assay type: functional; conditions: dose 4000 µmol/L, at 4000 µM
[12] = Toxicity in BALB/c mouse implanted with mouse 4T1 cells assessed as increase in neutrophil granulocytes at 0.2 mmol/Kg, po administered once every day for 14 days by routine blood analysis; assay type: organism-based; conditions: in vivo, 336 h, time 14 day
[13] = Toxicity in BALB/c mouse implanted with mouse 4T1 cells assessed as splenic edema at 0.2 mmol/Kg, po administered once every day for 14 days; assay type: organism-based; conditions: in vivo, 336 h, time 14 day
[14] = test system: 4T1; assay: Induction of mitochondrial membrane potential loss in mouse 4T1 cells assessed as green fluorescence at 4000 uM incubated for 24 hrs by JC-1 staining based flow cytometric analysis (reference value: 11.7%); assay type: cell-based
[15] = Prodrug conversion in carboxylesterase (unknown origin) solution assessed as drug hydrolysis by measuring stachydrine release at 3 to 20 hrs; assay type: ADME, Homo sapiens; conditions: time 3-20 hrs
[16] = Toxicity in BALB/c mouse implanted with mouse 4T1 cells assessed as change in lung histopathology at 0.2 mmol/Kg, po administered once every day for 14 days; assay type: organism-based; conditions: in vivo, 336 h, time 14 day
[17] = Toxicity in BALB/c mouse implanted with mouse 4T1 cells assessed as increase in lymphocytes at 0.2 mmol/Kg, po administered once every day for 14 days by routine blood analysis; assay type: organism-based; conditions: in vivo, 336 h, time 14 day
[18] = Toxicity in BALB/c mouse implanted with mouse 4T1 cells assessed as change in heart histopathology at 0.2 mmol/Kg, po administered once every day for 14 days; assay type: organism-based; conditions: in vivo, 336 h, time 14 day
[19] = Toxicity in BALB/c mouse implanted with mouse 4T1 cells assessed as increase in ALT level at 0.2 mmol/Kg, po administered once every day for 14 days by routine blood analysis; assay type: organism-based; conditions: in vivo, 336 h, time 14 day
[20] = test system: 4T1; assay: Induction of apoptosis in mouse 4T1 cells assessed as apoptotic rate at 8000 micromol/L incubated for 24 hrs by Annexin-V/PI staining based flow cytometry relative to control; assay type: functional; conditions: dose 8000 µmol/L, at 8000 µM
[21] = Toxicity in BALB/c mouse implanted with mouse 4T1 cells assessed as effect on CREA level at 0.2 mmol/Kg, po administered once every day for 14 days by routine blood analysis; assay type: organism-based; conditions: in vivo, 336 h, time 14 day
[22] = Toxicity in BALB/c mouse implanted with mouse 4T1 cells assessed as change in liver histopathology at 0.2 mmol/Kg, po administered once every day for 14 days; assay type: organism-based; conditions: in vivo, 336 h, time 14 day
[23] = test system: 4T1; assay: Induction of apoptosis in mouse 4T1 cells assessed as apoptotic rate at 1000 micromol/L incubated for 24 hrs by Annexin-V/PI staining based flow cytometry relative to control; assay type: functional; conditions: dose 1000 µmol/L, at 1000 µM
[24] = test system: 4T1; assay: Antitumor activity against mouse 4T1 cells implanted in BALB/c mouse assessed as tumor cell necrosis at 0.2 mmol/Kg, po administered once every day for 14 days by histological staining based analysis; assay type: functional, organism-based; conditions: time 14.0 day
[25] = test system: 4T1; assay: Antitumor activity against mouse 4T1 cells implanted in BALB/c mouse assessed as tumor cell shrinkage at 0.2 mmol/Kg, po administered once every day for 14 days by histological staining based analysis; assay type: functional, organism-based; conditions: time 14.0 day
[26] = Toxicity in BALB/c mouse implanted with mouse 4T1 cells assessed as increase in AST level at 0.2 mmol/Kg, po administered once every day for 14 days by routine blood analysis; assay type: organism-based; conditions: in vivo, 336 h, time 14 day
[27] = Toxicity in BALB/c mouse implanted with mouse 4T1 cells assessed as increase in splenic red pulp at 0.2 mmol/Kg, po administered once every day for 14 days; assay type: organism-based; conditions: in vivo, 336 h, time 14 day
[28] = test system: 4T1; assay: Induction of mitochondrial membrane potential loss in mouse 4T1 cells assessed as red fluorescence at 4000 uM incubated for 24 hrs by JC-1 staining based flow cytometric analysis (Rvb= 87.9%); assay type: cell-based
[29] = Toxicity in BALB/c mouse implanted with mouse 4T1 cells assessed as increase in monocytes at 0.2 mmol/Kg, po administered once every day for 14 days by routine blood analysis; assay type: organism-based; conditions: in vivo, 336 h, time 14 day
[30] = Toxicity in BALB/c mouse implanted with mouse 4T1 cells assessed as increase in white blood cells at 0.2 mmol/Kg, po administered once every day for 14 days by routine blood analysis; assay type: organism-based; conditions: in vivo, 336 h, time 14 day
[31] = Toxicity in BALB/c mouse implanted with mouse 4T1 cells assessed as effect on BUN level at 0.2 mmol/Kg, po administered once every day for 14 days by routine blood analysis; assay type: organism-based; conditions: in vivo, 336 h, time 14 day
[32] = Toxicity in BALB/c mouse implanted with mouse 4T1 cells assessed as increase in mean platelet volume at 0.2 mmol/Kg, po administered once every day for 14 days by routine blood analysis; assay type: organism-based; conditions: in vivo, 336 h, time 14 day
[33] = Prodrug conversion in cell culture medium containing 10% FBS assessed as drug hydrolysis by measuring stachydrine release at 3 to 20 hrs; assay type: ADME; conditions: cattle; time 3-20 hrs
[34] = test system: 4T1; assay: Induction of apoptosis in mouse 4T1 cells assessed as apoptotic rate at 0.04 micromol/L incubated for 24 hrs by Annexin-V/PI staining based flow cytometry relative to control; assay type: functional; conditions: dose 0.04 µmol/L, at 0.04 µM
[35] = test system: 4T1; assay: Induction of apoptosis in mouse 4T1 cells assessed as apoptotic rate at 2 micromol/L incubated for 24 hrs by Annexin-V/PI staining based flow cytometry relative to control; assay type: functional; conditions: dose 2 µmol/L, at 2 µM
[36] = test system: 4T1; assay: Induction of apoptosis in mouse 4T1 cells assessed as apoptotic rate at 0.3 micromol/L incubated for 24 hrs by Annexin-V/PI staining based flow cytometry relative to control; assay type: functional; conditions: dose 0.3 µmol/L, at 0.3 µM
[37] = test system: 4T1; assay: Induction of mitochondrial membrane potential loss in mouse 4T1 cells assessed as red fluorescence at 250 uM incubated for 24 hrs by JC-1 staining based flow cytometric analysis (Rvb= 87.9%); assay type: cell-based
[38] = test system: 4T1; assay: Induction of apoptosis in mouse 4T1 cells assessed as apoptotic rate at 50 micromol/L incubated for 24 hrs by Annexin-V/PI staining based flow cytometry relative to control; assay type: functional; conditions: dose 50 µmol/L, at 50 µM
[39] = test system: 4T1; assay: Induction of mitochondrial membrane potential loss in mouse 4T1 cells assessed as green fluorescence at 250 uM incubated for 24 hrs by JC-1 staining based flow cytometric analysis (reference value: 11.7%); assay type: cell-based
[40] = test system: 4T1; assay: Induction of apoptosis in mouse 4T1 cells assessed as apoptotic rate at 250 micromol/L incubated for 24 hrs by Annexin-V/PI staining based flow cytometry relative to control; assay type: functional; conditions: dose 250 µmol/L, at 250 µM
[41] = test system: 4T1; assay: Inhibition of cell migration in mouse 4T1 cells assessed as reduction in wound healing incubated for 24 hrs by microscopic analysis; assay type: functional, cell-based
[42] = test system: 4T1; assay: Induction of mitochondrial membrane potential loss in mouse 4T1 cells assessed as red fluorescence at 50 uM incubated for 24 hrs by JC-1 staining based flow cytometric analysis (reference value: 87.9%); assay type: cell-based
[43] = test system: 4T1; assay: Induction of mitochondrial membrane potential loss in mouse 4T1 cells assessed as green fluorescence at 50 uM incubated for 24 hrs by JC-1 staining based flow cytometric analysis (reference value: 11.7%); assay type: cell-based

SMILES: CCOC(=O)C1CCC[N+]1(C)C (stereo not drawn)
- IC50 [1]: 7890 µM
- IC50 [2]: 1710 µM
- IC50 [3]: 14000 µM

SMILES: CCCCOC(=O)C1CCC[N+]1(C)C.[Cl-] (stereo not drawn)
- Activity [4]: Toxic
- Activity [5]: Non-Toxic
- Activity [6]: Toxic
- Activity [7]: Toxic
- inhibition in vivo at 200 µmol/kg [8]: 45.1%
- Activity [9]: Active
- Drug metabolism [10]: Metabolite_Detected
- Activity [11]: 39.8%
- Activity [12]: Non-Toxic
- Activity [13]: Toxic
- Activity [14]: 38.9%
- Drug metabolism [15]: Metabolite_Detected
- IC50 [1]: 5170 µM
- Activity [16]: Non-Toxic
- Activity [17]: Non-Toxic
- Activity [18]: Non-Toxic
- Activity [19]: Toxic
- Activity [20]: 51.28%
- Activity [21]: Non-Toxic
- Activity [22]: Non-Toxic
- Activity [23]: 29.06%
- Activity [24]: Active
- Activity [25]: Active
- Activity [26]: Toxic
- IC50 [2]: 6380 µM
- Activity [27]: Toxic
- Activity [28]: 60.9%
- Activity [29]: Non-Toxic
- IC50 [3]: 6310 µM
- Activity [30]: Non-Toxic
- Activity [31]: Non-Toxic
- Activity [32]: Non-Toxic
- Drug metabolism [33]: Metabolite_Detected

SMILES: CCCCCCCCCCCCCCCCCCOC(=O)C1CCC[N+]1(C)C (stereo not drawn)
- IC50 [1]: 2.01 µM
- IC50 [2]: 2.42 µM
- IC50 [3]: 2.73 µM

SMILES: CCCCCCCCCCOC(=O)C1CCC[N+]1(C)C (stereo not drawn)
- IC50 [1]: 98 µM
- IC50 [2]: 204 µM
- IC50 [3]: 136 µM

SMILES: CCCCCCCCCCCCCCCCOC(=O)C1CCC[N+]1(C)C.[Cl-] (stereo not drawn)
- Drug metabolism [10]: Metabolite_Detected
- Drug metabolism [15]: Metabolite_Detected
- IC50 [1]: 0.341 µM
- Activity [34]: 52%
- Activity [35]: 72%
- IC50 [2]: 0.858 µM
- IC50 [3]: 0.701 µM
- Activity [36]: 62.1%
- Drug metabolism [33]: Metabolite_Detected

SMILES: CCCCCCCCCCCCCCOC(=O)C1CCC[N+]1(C)C (stereo not drawn)
- IC50 [1]: 57 µM
- IC50 [2]: 165 µM
- IC50 [3]: 166 µM

SMILES: CCCCCCCCOC(=O)C1CCC[N+]1(C)C.[Cl-] (stereo not drawn)
- Activity [4]: Toxic
- Activity [5]: Non-Toxic
- Activity [6]: Toxic
- Activity [37]: 46.5%
- Activity [7]: Toxic
- inhibition in vivo at 200 µmol/kg [8]: 51.5%
- Activity [9]: Active
- Drug metabolism [10]: Metabolite_Detected
- Activity [12]: Non-Toxic
- Activity [13]: Toxic
- Drug metabolism [15]: Metabolite_Detected
- IC50 [1]: 140 µM
- Activity [38]: 36.82%
- Activity [16]: Non-Toxic
- Activity [17]: Non-Toxic
- Activity [18]: Non-Toxic
- Activity [19]: Toxic
- Activity [21]: Non-Toxic
- Activity [22]: Non-Toxic
- Activity [23]: 80.8%
- Activity [24]: Active
- Activity [25]: Active
- Activity [26]: Toxic
- IC50 [2]: 508 µM
- Activity [39]: 53.5%
- Activity [27]: Toxic
- Activity [29]: Non-Toxic
- IC50 [3]: 249 µM
- Activity [30]: Non-Toxic
- Activity [40]: 69.9%
- Activity [31]: Non-Toxic
- Activity [32]: Non-Toxic
- Drug metabolism [33]: Metabolite_Detected
- inhibition [41]: Dose-Dependent Effect

SMILES: N#CC(C#N)=NNc1cccc(Cl)c1
- Activity [42]: 51.1%
- Activity [43]: 48.4%

SMILES: CCCCCCOC(=O)C1CCC[N+]1(C)C (stereo not drawn)
- IC50 [1]: 1100 µM
- IC50 [2]: 2550 µM
- IC50 [3]: 1560 µM
